Assay results taken from patent US20100216823A1 (Pfizer Inc., priority 2007, published 2010).

Legend:
Assay type in all cases: biochemical
[1] = molecular target: T1, PDE1C (Homo sapiens, UniProt Q14123); test: PDE1C [3H]-cAMP scintillation proximity assay (SPA) enzyme inhibition; conditions: full length PDE1C in cell lysate; 75 nM cAMP; Ki from IC50 by Cheng-Prussof equation
T1 construct: cell lysate containing full length PDE7A, PDE7B and PDE1C enzyme; made in house; host or cells: cell lysate
T1 sequence (Q14123 whole entry): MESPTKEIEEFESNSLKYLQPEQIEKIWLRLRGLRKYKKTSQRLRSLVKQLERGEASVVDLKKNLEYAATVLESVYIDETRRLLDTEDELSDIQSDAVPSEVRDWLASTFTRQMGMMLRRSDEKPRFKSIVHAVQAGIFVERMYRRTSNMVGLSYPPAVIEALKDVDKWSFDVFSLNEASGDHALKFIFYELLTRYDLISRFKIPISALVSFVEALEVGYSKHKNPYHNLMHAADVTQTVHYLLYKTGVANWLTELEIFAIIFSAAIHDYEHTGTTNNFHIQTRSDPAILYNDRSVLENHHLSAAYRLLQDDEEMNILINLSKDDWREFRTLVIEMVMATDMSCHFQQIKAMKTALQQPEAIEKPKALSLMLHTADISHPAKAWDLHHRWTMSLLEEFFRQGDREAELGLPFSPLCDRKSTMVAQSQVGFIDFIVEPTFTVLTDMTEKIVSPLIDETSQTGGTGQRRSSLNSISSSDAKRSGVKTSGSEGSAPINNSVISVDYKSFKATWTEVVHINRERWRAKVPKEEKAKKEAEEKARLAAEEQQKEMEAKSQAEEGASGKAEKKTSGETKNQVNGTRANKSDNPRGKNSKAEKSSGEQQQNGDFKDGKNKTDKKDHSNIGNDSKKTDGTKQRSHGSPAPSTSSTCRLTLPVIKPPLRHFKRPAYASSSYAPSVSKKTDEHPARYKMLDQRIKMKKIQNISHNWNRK
Procedure: (§1) The ability of the compounds of formula (I) to inhibit PDE7 and PDE1 may be measured using the following assay protocol.
(§2) PDE7A, PDE7B and PDE1C enzymes catalyse the hydrolysis of 3′,5′-cyclic adenosine monophosphate (cAMP) to the 5′ adenosine monophosphate, 5′AMP. In a multiwell plate, PDE enzyme, [^3H]-cAMP and the test compounds, are incubated at room temperature. The incubation is terminated by addition of commercially available yttrium silicate scintillation proximity assay (SPA) beads containing zinc sulphate. The yttrium silicate beads preferentially bind linear nucleotides, thus the product of the enzyme reaction, [^3H]-5′AMP binds to the bead to produce a light signal, which is detected by a scintillation counter. The amount of signal produced directly correlates with the amount of product formed, and thus the activity of the enzyme. The maximum signal is obtained where enzyme and substrate are incubated alone. The background signal is measured from wells either containing no enzyme, or from wells containing a supra-maximal concentration of a known PDE 7A/7B/1C inhibitor. Each purified batch of enzyme is quality controlled and its Km, Vmax and specific activity determined from kinetic studies before use in compound inhibition studies. The inhibition of the enzyme, by a test compound, is calculated relative to the maximum and background responses.
(§3) The compound of Example 75 of WO 02/074754, 5′-carboxypropoxy-8′-chloro-spiro[cyclohexane-1-4′-(3′,4′-dihydro)quinazolin]-2′(1′H)-one (referred to as compound A hereafter) was used as a standard for PDE7A and PDE7B. The compound of Example 32 of WO 02/074754, 4-(8′-chloro-2′-oxo-2′,3′-dihydro-1′H-spiro[cyclohexane-1,4′-quinazolin]-6′-yl)benzoic acid (referred to as compound B hereafter) was used as a standard for PDE1C.
(§4) The optimisation of this assay has been carried out using cell lysate containing full length PDE7A, PDE7B and PDE1C enzyme. The concentration of the enzyme in this cell lysate sample is unknown, so the specific activity of the cell lysate is used as a measure to ensure that the same activity per well is used despite any batch-to-batch variation of concentration/activity.
(§5) PDE7A/7B/1C stock enzyme was prepared and kept at −20° C. in appropriately sized aliquots to reduce the number of freeze/thaw cycles. […] PDE7A is diluted to 1/8000, PDE7B to 1/10000 and PDE1C to 1/200000.
The final assay [cAMP]=75 nM therefore the required solution [cAMP]=0.15 μM (1/2 dilution in assay plate)
(§6) 1 μl test compound was transferred into a suitable multi-well assay plate immediately prior to reagent assay addition, 14 μl enzyme solution was then added to the assay plate, followed by 15 μl substrate solution (ie: final assay volume 30 μl, with a final screening compound concentration of 1 μM for PDE7A and PDE7B and 10 μM for PDE1C). The plate was then sealed using a plate sealer and incubated at room temperature for 45 min on the plate shaker.
(§7) 30 μl Yttrium Silicate PDE4 SPA beads were then added, ensuring constant stirring of the beads to give even distribution in the assay plate. The plate was then sealed using a plate sealer and incubated at room temperature for 30 mins on the plate shaker. The beads were then allowed to settle for 30 mins, before spinning the plates for 1 min at 200 g.
(§8) The plates were then read on a suitable radioactive counter, for example NXT-TopCount™ (available from Perkin Elmer) using the relevant protocol (30 second read time per well).
(§9) The data was fitted to a sigmoid curve using a least squares algorithm.
(§10) The IC50 value was converted to a value using the Cheng-Prussof equation: […]

[2] = molecular target: T2, PDE7A (Homo sapiens, UniProt Q13946); test: PDE7A [3H]-cAMP scintillation proximity assay (SPA) enzyme inhibition; conditions: for Ki: full length PDE7A in cell lysate, ~25 nM cAMP, Ki from IC50 by Cheng-Prussof equation; for 1C/7A selectivity: ratio PDE1C Ki / PDE7A Ki
T2 construct: cell lysate containing full length PDE7A, PDE7B and PDE1C enzyme; made in house; host or cells: cell lysate
T2 sequence (Q13946 whole entry): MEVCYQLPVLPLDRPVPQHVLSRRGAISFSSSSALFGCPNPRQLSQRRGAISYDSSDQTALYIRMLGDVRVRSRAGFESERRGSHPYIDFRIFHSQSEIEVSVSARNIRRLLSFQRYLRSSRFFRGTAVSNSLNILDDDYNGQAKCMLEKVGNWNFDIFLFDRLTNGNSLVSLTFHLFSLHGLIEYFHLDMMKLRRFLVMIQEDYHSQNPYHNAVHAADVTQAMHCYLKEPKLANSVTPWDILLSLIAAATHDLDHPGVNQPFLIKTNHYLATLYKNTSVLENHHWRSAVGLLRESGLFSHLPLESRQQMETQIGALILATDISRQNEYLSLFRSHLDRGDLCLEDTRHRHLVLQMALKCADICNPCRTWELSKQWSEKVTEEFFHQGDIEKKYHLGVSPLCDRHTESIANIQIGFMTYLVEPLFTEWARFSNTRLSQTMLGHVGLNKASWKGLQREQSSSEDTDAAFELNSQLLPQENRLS
Procedure: as §1, §2, §3, §4, §5
(§11) The final assay [cAMP] of ˜25 nM is required, so ˜50 nM [^3H]-cAMP was prepared. 9 ml of substrate solution was prepared by mixing 10.8 μl of [^3H]-cAMP (available from Amersham) with 8975 μl of assay buffer.
as §6, §7, §8, §9, §10

[3] = molecular target: T3, PDE7B (Homo sapiens, UniProt Q9NP56); test: PDE7B [3H]-cAMP scintillation proximity assay (SPA) enzyme inhibition; conditions: for Ki: full length PDE7B in cell lysate, ~25 nM cAMP, Ki from IC50 by Cheng-Prussof equation; for 1C/7B selectivity: ratio PDE1C Ki / PDE7B Ki
T3 construct: cell lysate containing full length PDE7A, PDE7B and PDE1C enzyme; made in house; host or cells: cell lysate
T3 sequence (Q9NP56 whole entry): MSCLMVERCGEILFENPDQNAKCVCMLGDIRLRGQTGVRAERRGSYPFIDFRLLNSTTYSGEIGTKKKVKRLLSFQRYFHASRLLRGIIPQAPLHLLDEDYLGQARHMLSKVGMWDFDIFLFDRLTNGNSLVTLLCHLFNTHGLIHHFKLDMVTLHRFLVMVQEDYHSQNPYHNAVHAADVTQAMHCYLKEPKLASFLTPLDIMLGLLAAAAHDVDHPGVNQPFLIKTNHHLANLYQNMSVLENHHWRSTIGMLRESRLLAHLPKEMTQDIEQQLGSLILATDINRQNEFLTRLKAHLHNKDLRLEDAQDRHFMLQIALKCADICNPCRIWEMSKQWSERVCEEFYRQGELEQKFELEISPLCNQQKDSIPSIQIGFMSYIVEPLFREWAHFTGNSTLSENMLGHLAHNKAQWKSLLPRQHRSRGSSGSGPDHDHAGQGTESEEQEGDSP
Procedure: as §1, §2, §3, §4, §5, §11, §6, §7, §8, §9, §10

| SMILES | Ki [1] | Ki [2] | 1C/7A selectivity [2] | Ki [3] | 1C/7B selectivity [3] |
| --- | --- | --- | --- | --- | --- |
| O=C1Nc2c(Cl)ccc(Oc3ccccc3-c3nnn[nH]3)c2C2(CCCCC2)N1 [Example 17, 8′-chloro-5′-[2-(1H-tetrazol-5-yl)phenoxy]-1′H-spiro[cyclohexane-1,4′-quinazolin]-2′(3′H)-one] | 37 nM | < 0.15 nM | >245 | 0.8 nM | 48 |
| O=C1Nc2c(Cl)ccc(Oc3c(F)cccc3-c3noc(=O)[nH]3)c2C2(CCCCC2)N1 [Example 18, 8′-chloro-5′-[2-fluoro-6-(5-oxo-4,5-dihydro-1,2,4-oxadiazol-3-yl)phenoxy]-1′H-spiro[cyclohexane-1,4′-quinazolin]-2′(3′H)-one] | 94 nM | 1.1 nM | 85 | 1.6 nM | 59 |
| O=C1Nc2c(Cl)ccc(Oc3c(F)cccc3-c3n[nH]c(=O)[nH]3)c2C2(CCCCC2)N1 [Example 19, 8′-chloro-5′-[2-fluoro-6-(5-oxo-4,5-dihydro-1H-1,2,4-triazol-3-yl)phenoxy]-1′H-spiro[cyclohexane-1,4′-quinazolin]-2′(3′H)-one] | 172 nM | 0.94 nM | 183 | 1.5 nM | 115 |
| CS(=O)(=O)NC(=O)c1cccc(F)c1Oc1ccc(Cl)c2c1C1(CCCCC1)NC(=O)N2 [Example 20, 2-[(8′-chloro-2′-oxo-2′,3′-dihydro-1′H-spiro[cyclohexane-1,4′-quinazolin]-5′-yl)oxy]-3-fluoro-N-(methylsulfonyl)benzamide] | 657 nM | 2.3 nM | 290 | 7 nM | 94 |
| O=C1Nc2c(Cl)ccc(Oc3c(F)cccc3NS(=O)(=O)C(F)(F)F)c2C2(CCCCC2)N1 [Example 21, N-{2-[(8′-chloro-2′-oxo-2′,3′-dihydro-1′H-spiro[cyclohexane-1,4′-quinazolin]-5′-yl)oxy]-3-fluorophenyl}-1,1,1-trifluoromethanesulfonamide] | 62 nM | 0.2 nM | 311 | 2.4 nM | 25 |
| O=C(O)COc1ccccc1Oc1ccc(Cl)c2c1C1(CCCCC1)NC(=O)N2 [Example 23, {2-[(8′-chloro-2′-oxo-2′,3′-dihydro-1′H-spiro[cyclohexane-1,4′-quinazolin]-5′-yl)oxy]phenoxy}acetic acid] | 58 nM | 0.48 nM | 121 | 1.9 nM | 31 |
| O=C(O)COc1ccc(Oc2ccc(Cl)c3c2C2(CCCCC2)NC(=O)N3)cc1 [Example 24, {4-[(8′-chloro-2′-oxo-2′,3′-dihydro-1′H-spiro[cyclohexane-1,4′-quinazolin]-5′-yl)oxy]phenoxy}acetic acid] | 157 nM | 0.98 nM | 160 | 11 nM | 14 |
